Test results published in the supplement of paper PMC10307832.

Experiments:
Experiment in all cases: relative viability (nuclei count vs DMSO), 5 days (fraction); higher = more cells survive
[1] = compound: CN(C)CC1=CC(=CC=C1)N=C(C2=CC=CC=C2)C3=C(NC4=C3C=CC(=C4)C(=O)N(C)C)O + Nc1ncn([C@H]2C[C@H](O)[C@@H](CO)O2)c(=O)n1 [Decitabine] (partner 2 µM)
Summary of the method: (§1)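 Five library-drug doses in √10 steps were combined with a fixed anchor-drug dose, or a single drug was given alone, by pin tool to lung cancer cell lines in 1536-well plates the day after seeding. Nuclei were stained and counted after 5 days. Relative viability is the nuclei count in treated wells over that in vehicle wells, taken as the median of duplicate plates.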

[2] = compound: CN(C)CC1=CC(=CC=C1)N=C(C2=CC=CC=C2)C3=C(NC4=C3C=CC(=C4)C(=O)N(C)C)O + CCNC(=O)c1noc(-c2cc(C(C)C)c(O)cc2O)c1-c1ccc(CN2CCOCC2)cc1 [Luminespib] (partner 0.01 µM)
Summary of the method: as §1

[3] = compound: CN(C)CC1=CC(=CC=C1)N=C(C2=CC=CC=C2)C3=C(NC4=C3C=CC(=C4)C(=O)N(C)C)O + CS(=O)(=O)CCNCc1ccc(-c2ccc3ncnc(Nc4ccc(OCc5cccc(F)c5)c(Cl)c4)c3c2)o1 [Lapatinib] (partner 2 µM)
Summary of the method: as §1

[4] = compound: CN(C)CC1=CC(=CC=C1)N=C(C2=CC=CC=C2)C3=C(NC4=C3C=CC(=C4)C(=O)N(C)C)O + O=C(c1cc(Cc2n[nH]c(=O)c3ccccc23)ccc1F)N1CCN(C(=O)C2CC2)CC1 [Olaparib] (partner 8 µM)
Summary of the method: as §1

| Cell Line | relative viability ([1]; first compound 0.08 µM) | relative viability ([1]; first compound 0.253 µM) | relative viability ([1]; first compound 0.8 µM) | relative viability ([1]; first compound 2.53 µM) | relative viability ([1]; first compound 8 µM) | relative viability ([2]; first compound 0.08 µM) | relative viability ([2]; first compound 0.253 µM) | relative viability ([2]; first compound 0.8 µM) | relative viability ([2]; first compound 2.53 µM) | relative viability ([2]; first compound 8 µM) | relative viability ([3]; first compound 0.08 µM) | relative viability ([3]; first compound 0.253 µM) | relative viability ([3]; first compound 0.8 µM) | relative viability ([3]; first compound 2.53 µM) | relative viability ([3]; first compound 8 µM) | relative viability ([4]; first compound 0.08 µM) | relative viability ([4]; first compound 0.253 µM) | relative viability ([4]; first compound 0.8 µM) | relative viability ([4]; first compound 2.53 µM) | relative viability ([4]; first compound 8 µM) |
| --- | --- | --- | --- | --- | --- | --- | --- | --- | --- | --- | --- | --- | --- | --- | --- | --- | --- | --- | --- | --- |
| NCI-H2009 | 0.364 | 0.427 | 0.432 | 0.343 | 0.379 | 1.04 | 0.999 | 1.11 | 0.96 | 1.05 | 1.07 | 0.98 | 1.03 | 0.813 | 0.886 | 0.726 | 0.722 | 0.732 | 0.649 | 0.669 |
| NCI-H1650 | 0.471 | 0.376 | 0.361 | 0.485 | 0.452 | 0.194 | 0.202 | 0.227 | 0.199 | 0.186 | 0.688 | 0.828 | 0.86 | 0.736 | 0.647 | 0.821 | 0.787 | 0.753 | 0.937 | 0.75 |
| NCI-H2085 | 0.521 | 0.571 | 0.622 | 0.547 | 0.646 | 0.591 | 0.533 | 0.477 | 0.527 | 0.404 | 0.791 | 0.844 | 0.758 | 0.758 | 0.733 | 0.793 | 0.777 | 0.776 | 0.725 | 0.816 |
| LOU-NH91 | 0.781 | 0.822 | 0.757 | 0.803 | 0.818 | 0.308 | 0.32 | 0.358 | 0.337 | 0.322 | 0.721 | 0.836 | 0.75 | 0.743 | 0.697 | 0.931 | 0.867 | 0.817 | 0.906 | 0.89 |
| NCI-H1734 | 0.526 | 0.491 | 0.455 | 0.564 | 0.493 | 0.206 | 0.168 | 0.164 | 0.25 | 0.174 | 1 | 1.08 | 1.02 | 1.02 | 0.881 | 0.547 | 0.611 | 0.672 | 0.633 | 0.515 |
| NCI-H1792 | 0.506 | 0.594 | 0.585 | 0.484 | 0.602 | 0.501 | 0.453 | 0.386 | 0.452 | 0.385 | 0.866 | 0.896 | 0.873 | 0.818 | 0.945 | 0.536 | 0.452 | 0.479 | 0.387 | 0.422 |
| H3255 | 0.599 | 0.605 | – | 0.586 | 0.593 | 0.899 | 0.894 | 0.751 | 0.836 | 0.998 | 0.25 | 0.31 | 0.235 | 0.222 | 0.292 | 0.577 | 0.57 | 0.598 | 0.574 | 0.608 |
| NCI-H2087 | 0.385 | 0.368 | 0.267 | 0.266 | 0.236 | 0.164 | 0.197 | 0.232 | 0.167 | 0.172 | 1.08 | 0.835 | 1.1 | 0.942 | 1.05 | 0.571 | 0.507 | 0.41 | 0.536 | 0.537 |
| BEN | 0.674 | 0.913 | 0.787 | 0.69 | 0.771 | 0.338 | 0.269 | 0.312 | 0.212 | 0.437 | 0.734 | 0.647 | 0.72 | 0.685 | 0.656 | 1.09 | 0.867 | 1.1 | 0.877 | 0.927 |
| COR-L23 | 0.442 | 0.422 | 0.433 | 0.429 | 0.401 | 0.752 | 0.787 | 0.791 | 0.523 | 0.665 | 1.05 | 0.895 | 0.922 | 0.92 | 0.975 | 0.36 | 0.308 | 0.397 | 0.314 | 0.327 |
| ABC-1 | 1.38 | 0.939 | 1.2 | 0.99 | 0.904 | 0.609 | 0.618 | 0.422 | 0.445 | 0.552 | 1.19 | 1.13 | 1.02 | 0.827 | 0.938 | 0.91 | 0.907 | 0.952 | 0.635 | 0.756 |
| NCI-H2170 | 0.516 | 0.487 | 0.452 | 0.462 | 0.418 | 0.791 | 0.566 | 0.53 | 0.667 | 0.549 | 0.278 | 0.277 | 0.286 | 0.273 | 0.271 | 0.672 | 0.552 | 0.491 | 0.535 | 0.554 |
| SK-LU-1 | 0.624 | 0.653 | 0.646 | 0.578 | 0.677 | 0.226 | 0.191 | 0.21 | 0.188 | 0.225 | 0.814 | 0.878 | 0.831 | 0.747 | 0.836 | 0.483 | 0.47 | 0.516 | 0.431 | 0.385 |
| NCI-H2023 | 0.258 | 0.216 | 0.221 | 0.195 | 0.232 | 0.75 | 0.75 | 0.769 | 0.577 | 0.483 | 1.25 | 0.889 | 0.812 | 0.497 | 0.43 | 0.539 | 0.525 | 0.473 | 0.416 | 0.414 |
| NCI-H358 | 0.198 | 0.214 | 0.212 | 0.214 | 0.236 | 0.304 | 0.277 | 0.331 | 0.414 | 0.276 | 0.46 | 0.347 | 0.468 | 0.425 | 0.413 | 0.598 | 0.661 | 0.546 | 0.527 | 0.528 |
| NCI-H1651 | 0.665 | 0.622 | 0.616 | 0.423 | 0.643 | 0.892 | 0.782 | 0.894 | 0.639 | 0.87 | 0.76 | 0.762 | 0.77 | 0.599 | 0.796 | 0.19 | 0.203 | 0.195 | 0.188 | 0.181 |
